{"source": "patent US20080207496A1", "about": "“ORGANIC COMPOUND” (priority 2003, published 2008)", "key": {"[1]": {"test_system": "peripheral blood mononuclear cells", "assay": "Intracellular calcium kinetics after PHA, flow cytometry (fluo-4/Fura-red)", "type": "cell-based, human", "conditions": "PHA 20 μg/ml; at micromolar concentrations", "description": "Intracellular Calcium Kinetics. Human PBMC's are resuspended in calcium-free PBS and loaded with the calcium indicator dyes Fura-red and fluo-4 for 1 hour at room temperature shielded from light. […] At the end of dye loading, cells are washed in PBS and resuspended in RPMI 1640 and placed in growth conditions. One million cells of each sample are then analyzed by a flow cytometer and the mean FL-1 and FL-3 channels recorded every 8 seconds for a total of 240 seconds. At least eight thousand events are acquired during each eight-second interval. PHA (20 μg/ml) was added to activate T cells at time 0 seconds. The ratio FL-1/FL-3 is directly related to the intracellular calcium concentration and is expressed in arbitrary units (AU)."}, "[2]": {"assay": "Phase I and II studies in patients with advanced cancer", "type": "in vivo, human", "conditions": "oral doses at 150 to 300 mg/day"}, "[3]": {"test_system": "Peripheral blood mononuclear cells (PBMCs)", "conditions": "ConA +"}, "[4]": {"test_system": "IL-2 production by CD3+ T cells", "conditions": "at concentrations less than 0.5 mM"}, "[5]": {"test_system": "IFN-gamma production by CD3+ T cells", "conditions": "at concentrations less than 0.5 mM"}, "[6]": {"target": "conventional protein kinase C isoform α (Homo sapiens, UniProt P17252)", "conditions": "cited from earlier work"}, "[7]": {"target": "conventional protein kinase C isoform β (Homo sapiens, UniProt P05771)", "sequence (P05771 whole entry, canonical isoform)": "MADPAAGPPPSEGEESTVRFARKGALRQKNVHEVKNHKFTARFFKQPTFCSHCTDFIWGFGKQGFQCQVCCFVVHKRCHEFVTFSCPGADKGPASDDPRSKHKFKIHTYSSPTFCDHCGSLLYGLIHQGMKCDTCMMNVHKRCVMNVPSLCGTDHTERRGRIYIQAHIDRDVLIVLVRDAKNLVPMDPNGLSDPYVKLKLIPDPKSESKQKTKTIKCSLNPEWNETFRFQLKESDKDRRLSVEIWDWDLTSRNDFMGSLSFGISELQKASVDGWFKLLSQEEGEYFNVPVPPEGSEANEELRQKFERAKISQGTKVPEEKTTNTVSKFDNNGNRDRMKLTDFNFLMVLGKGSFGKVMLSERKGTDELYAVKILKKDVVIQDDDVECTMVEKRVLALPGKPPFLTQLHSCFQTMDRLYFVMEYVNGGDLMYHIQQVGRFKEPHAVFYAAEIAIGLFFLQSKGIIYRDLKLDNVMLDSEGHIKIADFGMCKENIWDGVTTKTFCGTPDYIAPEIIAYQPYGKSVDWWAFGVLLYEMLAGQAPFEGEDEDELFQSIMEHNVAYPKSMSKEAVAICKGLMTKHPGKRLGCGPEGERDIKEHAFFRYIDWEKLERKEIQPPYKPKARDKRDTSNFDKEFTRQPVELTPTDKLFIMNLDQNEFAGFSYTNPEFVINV", "conditions": "cited from earlier work"}, "[8]": {"target": "conventional protein kinase C isoform γ (Homo sapiens, UniProt P05129)", "conditions": "cited from earlier work"}, "[9]": {"target": "calcium-independent protein kinase C isoform δ (Homo sapiens, UniProt Q05655)", "sequence (Q05655 whole entry, canonical isoform)": "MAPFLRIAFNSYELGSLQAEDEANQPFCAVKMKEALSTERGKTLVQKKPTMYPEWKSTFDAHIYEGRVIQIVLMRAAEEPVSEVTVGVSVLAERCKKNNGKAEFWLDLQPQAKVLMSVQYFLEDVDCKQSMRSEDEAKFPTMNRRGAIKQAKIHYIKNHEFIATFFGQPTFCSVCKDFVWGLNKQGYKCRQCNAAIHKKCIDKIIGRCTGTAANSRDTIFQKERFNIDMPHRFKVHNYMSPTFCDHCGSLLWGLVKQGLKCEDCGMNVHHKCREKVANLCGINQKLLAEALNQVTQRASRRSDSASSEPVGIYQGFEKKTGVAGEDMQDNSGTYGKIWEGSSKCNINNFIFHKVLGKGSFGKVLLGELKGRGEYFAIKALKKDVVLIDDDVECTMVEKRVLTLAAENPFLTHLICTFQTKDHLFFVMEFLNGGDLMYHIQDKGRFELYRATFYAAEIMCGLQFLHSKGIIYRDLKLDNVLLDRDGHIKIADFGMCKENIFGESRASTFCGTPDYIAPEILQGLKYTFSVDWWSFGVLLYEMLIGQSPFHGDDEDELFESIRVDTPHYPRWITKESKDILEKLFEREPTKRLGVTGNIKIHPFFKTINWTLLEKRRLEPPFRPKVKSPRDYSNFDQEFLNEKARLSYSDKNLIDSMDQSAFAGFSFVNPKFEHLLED", "conditions": "cited from earlier work"}, "[10]": {"target": "T1, calcium-independent protein kinase C isoform ε (Homo sapiens, UniProt Q02156)", "T1 sequence (Q02156 1-737)": "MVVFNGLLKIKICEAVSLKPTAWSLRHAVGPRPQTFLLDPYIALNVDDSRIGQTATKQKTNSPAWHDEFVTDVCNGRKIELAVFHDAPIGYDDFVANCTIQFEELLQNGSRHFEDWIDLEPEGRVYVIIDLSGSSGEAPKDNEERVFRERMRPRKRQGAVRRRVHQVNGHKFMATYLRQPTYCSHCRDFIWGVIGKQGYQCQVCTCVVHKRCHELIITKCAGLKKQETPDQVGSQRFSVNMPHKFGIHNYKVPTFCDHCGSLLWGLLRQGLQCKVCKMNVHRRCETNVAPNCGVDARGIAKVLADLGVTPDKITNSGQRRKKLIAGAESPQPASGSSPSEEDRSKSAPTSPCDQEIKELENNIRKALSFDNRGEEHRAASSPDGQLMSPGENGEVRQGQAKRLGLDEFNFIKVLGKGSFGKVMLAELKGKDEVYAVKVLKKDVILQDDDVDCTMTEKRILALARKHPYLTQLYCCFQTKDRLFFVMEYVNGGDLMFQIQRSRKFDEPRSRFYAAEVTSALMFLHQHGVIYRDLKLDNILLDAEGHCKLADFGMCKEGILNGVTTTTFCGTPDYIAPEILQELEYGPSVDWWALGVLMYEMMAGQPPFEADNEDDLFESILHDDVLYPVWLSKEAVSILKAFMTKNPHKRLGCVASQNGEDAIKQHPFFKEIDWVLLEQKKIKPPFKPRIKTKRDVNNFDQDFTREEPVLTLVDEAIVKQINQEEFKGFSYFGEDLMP", "conditions": "cited from earlier work"}, "[11]": {"target": "calcium-independent protein kinase C isoform η (Homo sapiens, UniProt P24723)", "sequence (P24723 whole entry, canonical isoform)": "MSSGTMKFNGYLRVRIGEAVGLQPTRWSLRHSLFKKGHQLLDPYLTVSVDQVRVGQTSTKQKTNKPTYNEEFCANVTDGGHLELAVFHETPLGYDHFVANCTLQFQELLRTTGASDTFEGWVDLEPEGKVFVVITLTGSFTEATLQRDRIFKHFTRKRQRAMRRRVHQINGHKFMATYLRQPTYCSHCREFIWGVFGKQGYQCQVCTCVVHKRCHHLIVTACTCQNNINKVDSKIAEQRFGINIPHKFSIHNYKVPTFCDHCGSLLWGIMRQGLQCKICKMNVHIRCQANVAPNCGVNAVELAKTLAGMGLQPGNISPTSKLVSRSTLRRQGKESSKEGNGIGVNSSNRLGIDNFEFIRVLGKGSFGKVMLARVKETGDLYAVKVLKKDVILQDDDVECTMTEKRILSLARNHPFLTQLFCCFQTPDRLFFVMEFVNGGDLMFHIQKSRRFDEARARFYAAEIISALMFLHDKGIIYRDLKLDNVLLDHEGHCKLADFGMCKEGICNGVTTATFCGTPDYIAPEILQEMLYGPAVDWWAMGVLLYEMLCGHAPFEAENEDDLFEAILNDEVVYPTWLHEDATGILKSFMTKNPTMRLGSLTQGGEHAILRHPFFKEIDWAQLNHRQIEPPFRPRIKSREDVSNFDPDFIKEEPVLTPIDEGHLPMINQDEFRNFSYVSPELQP", "conditions": "cited from earlier work"}}, "note": "Read-outs that look alike come from different tables or passages of the source.", "data": [{"smiles": "CO[C@@H]1[C@H](N(C)C(=O)c2ccccc2)C[C@H]2O[C@]1(C)n1c3ccccc3c3c4c(c5c6ccccc6n2c5c31)C(=O)NC4", "note": "[Compound I, midostaurin]", "values": [{"measurement": "intracellular calcium response to PHA", "setting": "[1]", "result": "blunts"}, {"measurement": "serum levels", "setting": "[2]", "result": "micromolar range"}, {"measurement": "cpm (mean 3H-thymidine incorporation)", "setting": "[3]; C I 0.05 mM with CsA 50 ng/ml", "result": 8472, "unit": "cpm"}, {"measurement": "cpm (mean 3H-thymidine incorporation)", "setting": "[3]; C I 0.05 mM with CsA 100 ng/ml", "result": 7307, "unit": "cpm"}, {"measurement": "cpm (mean 3H-thymidine incorporation)", "setting": "[3]; C I 0.05 mM, no CsA", "result": 11944, "unit": "cpm"}, {"measurement": "cpm (mean 3H-thymidine incorporation)", "setting": "[3]; C I 0.1 mM with CsA 50 ng/ml", "result": 5260, "unit": "cpm"}, {"measurement": "cpm (mean 3H-thymidine incorporation)", "setting": "[3]; C I 0.1 mM with CsA 100 ng/ml", "result": 3162, "unit": "cpm"}, {"measurement": "cpm (mean 3H-thymidine incorporation)", "setting": "[3]; C I 0.1 mM, no CsA", "result": 9005, "unit": "cpm"}, {"measurement": "cpm (mean 3H-thymidine incorporation)", "setting": "[3]; C I 1 mM with CsA 50 ng/ml", "result": 1082, "unit": "cpm"}, {"measurement": "cpm (mean 3H-thymidine incorporation)", "setting": "[3]; C I 1 mM with CsA 100 ng/ml", "result": 642, "unit": "cpm"}, {"measurement": "cpm (mean 3H-thymidine incorporation)", "setting": "[3]; C I 1 mM, no CsA", "result": 2556, "unit": "cpm"}, {"measurement": "effect on IL-2 production by CD3+ T cells", "setting": "[4]", "result": "slightly increases"}, {"measurement": "effect on IFN-gamma production by CD3+ T cells", "setting": "[5]", "result": "slightly increases"}, {"measurement": "inhibition of protein kinase C isoform α (inhibitory concentration)", "setting": "[6]", "result": "nanomolar concentrations"}, {"measurement": "inhibition of protein kinase C isoform β (inhibitory concentration)", "setting": "[7]", "result": "nanomolar concentrations"}, {"measurement": "inhibition of protein kinase C isoform γ (inhibitory concentration)", "setting": "[8]", "result": "nanomolar concentrations"}, {"measurement": "inhibition of protein kinase C isoform δ (inhibitory concentration)", "setting": "[9]", "result": "nanomolar concentrations"}, {"measurement": "inhibition of protein kinase C isoform ε (inhibitory concentration)", "setting": "[10]", "result": "nanomolar concentrations"}, {"measurement": "inhibition of protein kinase C isoform η (inhibitory concentration)", "setting": "[11]", "result": "nanomolar concentrations"}]}]}
